Measurements as given in ChEMBL document CHEMBL4610037, “Discovery of 5-(pyridin-3-yl)-1H-indole-4,7-diones as indoleamine 2,3-dioxygenase 1 (IDO1) inhibitors” (Bioorg Med Chem Lett, 2020).
The source made the active and inactive calls. The rule behind the calls is not given here.

Legend:
[1] = biological target: T1, Indoleamine 2,3-dioxygenase 1 (Homo sapiens, UniProt P14902); test: Inhibition of recombinant human IDO1 expressed in Escherichia coli
Target sequence in this assay (P14902 whole entry): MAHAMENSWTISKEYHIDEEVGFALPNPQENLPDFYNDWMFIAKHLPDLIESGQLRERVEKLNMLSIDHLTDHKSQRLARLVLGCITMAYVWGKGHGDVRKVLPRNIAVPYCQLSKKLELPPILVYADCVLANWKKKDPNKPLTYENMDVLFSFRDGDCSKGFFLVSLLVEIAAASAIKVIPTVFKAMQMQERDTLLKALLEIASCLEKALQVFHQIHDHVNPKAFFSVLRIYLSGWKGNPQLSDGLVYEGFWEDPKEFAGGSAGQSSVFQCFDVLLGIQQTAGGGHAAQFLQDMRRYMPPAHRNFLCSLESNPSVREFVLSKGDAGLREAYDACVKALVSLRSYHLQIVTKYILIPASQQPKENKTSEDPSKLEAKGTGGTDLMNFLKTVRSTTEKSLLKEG

[2] = biological target: T1, Indoleamine 2,3-dioxygenase 1; test: Inhibition of recombinant human IDO1 expressed in Escherichia coli at 10 uM relative to control
Target sequence in this assay (P14902 whole entry, looked up): as the sequence (P14902 whole entry) above

[3] = biological target: T1, Indoleamine 2,3-dioxygenase 1; test: Inhibition of IFNgamma-stimulated IDO1 in human HeLa cells; type: cell-based
Target sequence in this assay (P14902 whole entry): as above

[4] = biological target: T1, Indoleamine 2,3-dioxygenase 1; test: Competitive inhibition of recombinant human IDO1 expressed in Escherichia coli at 1 to 4 uM using L-tryptophan as substrate
Target sequence in this assay (P14902 whole entry, looked up): as the sequence (P14902 whole entry) above

[5] = biological target: T1, Indoleamine 2,3-dioxygenase 1; test: Reversible inhibition of recombinant human IDO1 expressed in Escherichia coli at 100 uM using L-tryptophan as substrate
Target sequence in this assay (P14902 whole entry, looked up): as the sequence (P14902 whole entry) above

Row | SMILES | IC50 [1] | inhibition [2] | EC50 [3] | inhibition [4] | inhibition [5]
1 | CC(C)(C)C(=O)NCCc1c[nH]c2c1C(=O)C(c1cccnc1)=CC2=O | 0.77 µM | 72.3% | 4.6 µM | – | –
2 | CC(C)(C)OC(=O)NCCc1c[nH]c2c1C(=O)C(c1ccccc1)=CC2=O | 2.94 µM | 56.4% | – | – | –
3 | NCCc1c[nH]c2c1C(=O)C(c1cccnc1)=CC2=O | 0.51 µM | 74.9% | 6.62 µM | – | –
4 | CC(C)(C)OC(=O)NCCc1c[nH]c2c1C(=O)C(c1ccncc1)=CC2=O | – | 12.4% | – | – | –
5 | CC(C)(C)OC(=O)NCCc1c[nH]c2c1C(=O)C(c1ccc(F)cc1)=CC2=O | – | 43.3% | – | – | –
6 | O=C1C=C(c2cccnc2)C(=O)c2c(CCNCCc3ccccc3)c[nH]c21 | 4 µM | 68.3% | > 10 µM | – | –
7 | Cc1ccc(C2=CC(=O)c3[nH]cc(CCNC(=O)OC(C)(C)C)c3C2=O)cc1 | – | 25.5% | – | – | –
8 | CC(C)(C)CNCCc1c[nH]c2c1C(=O)C(c1cccnc1)=CC2=O | 0.56 µM | 79.5% | 4.53 µM | – | –
9 | CC(C)NCCc1c[nH]c2c1C(=O)C(c1cccnc1)=CC2=O | 0.51 µM | 63.8% | 2.6 µM | – | –
10 | CC(=O)NCCc1c[nH]c2c1C(=O)C(c1cccnc1)=CC2=O | 1.36 µM | 57.5% | > 10 µM | – | –
11 | CCNCCc1c[nH]c2c1C(=O)C(c1cccnc1)=CC2=O | 0.16 µM | 81.7% | 3.58 µM | – | –
12 | CCCCNCCc1c[nH]c2c1C(=O)C(c1cccnc1)=CC2=O | 0.88 µM | 79.2% | 2.72 µM | – | –
13 | COc1ccccc1C1=CC(=O)c2[nH]cc(CCNC(=O)OC(C)(C)C)c2C1=O | 2.38 µM | 63.2% | – | – | –
14 | CCN(CC)CCc1c[nH]c2c1C(=O)C(c1cccnc1)=CC2=O | 2.26 µM | 64.2% | > 10 µM | – | –
15 | CN(C)CCc1c[nH]c2c1C(=O)C(c1cccnc1)=CC2=O | 0.5 µM | 71.3% | 4.22 µM | – | –
16 | COc1ccc(C2=CC(=O)c3[nH]cc(CCNC(=O)OC(C)(C)C)c3C2=O)cc1 | – | 34.5% | – | – | –
17 | O=C1C=C(c2cccnc2)C(=O)c2c(CCNC3CCCCC3)c[nH]c21 | 1.5 µM | 65% | 2.54 µM | – | –
18 | O=C(NCCc1c[nH]c2c1C(=O)C(c1cccnc1)=CC2=O)c1ccccc1 | 2.08 µM | 65.7% | 5.09 µM | – | –
19 | CC(C)(C)OC(=O)NCCc1c[nH]c2c1C(=O)C(c1cccnc1)=CC2=O | 1.9 µM | 66.5% | 5.4 µM | Active | Active
20 | O=C1C=C(c2cccnc2)C(=O)c2c(CCNS(=O)(=O)c3ccccc3)c[nH]c21 | 3.51 µM | 59.7% | 4.92 µM | – | –
21 | CC(C)(C)OC(=O)NCCc1c[nH]c2c1C(=O)C(c1ccccc1F)=CC2=O | 2.09 µM | 67.3% | – | – | –
